Laboratory results: patent US20100286247A1, “Methods of Protection from Oxidative Stress” (Trustees of Boston University, priority 2005, published 2010)
“Also recorded” adds a separate entry of the source. {P} = phosphate

Assays:
[1] = tested on: NAD(P)H oxidase; assay: DCF assay with NADPH oxidase inhibitor DPI; format: cell-based, human; conditions: 50 μM DPI in DCF solution; pTT or TO treated fibroblasts
Method: (§1) H2DCFDA stock solution (1 mg/ml) was thawed and diluted in Hanks' Balanced Salt Solution, 1× liquid without phenol red (GIBCO Invitrogen, Carlsbad, Calif.), to a working concentration of 100 μM immediately before use. H2DCFDA is converted by intracellular esterases to dichlorofiuorescein (DCF). When oxidized by intracellular ROS, it will fluoresce at 530 nm when excited by 480 nm light. […] All work involving DCF was conducted in minimal room light. Peaks on FACScan plots that shift to the right indicate greater fluorescence and increased ROS levels. For NADPH oxidase inhibitor studies using DPI,^237,239 the DPI stock solution was added directly to DCF treatment solution to achieve a final DPI treatment concentration of 50 μM.
Because p53-dependent ROS production in fibroblasts has been attributed to NAD(P)H oxidase activity,^169 a specific NADPH oxidase inhibitor, diphenyliodonium chloride (DPI),^239 was added to the DCF assay medium to determine the role of NADPH oxidases in T-oligo mediated ROS induction.

[2] = tested on: intracellular ROS in normal newborn human dermal fibroblasts; assay: Dichlorofluorescein diacetate (DCF) assay of intracellular ROS, FACScan; format: cell-based; conditions: for DCF fluorescence (intracellular ROS) compared to diluent: 100 μM pTT / pCC, 40 μM TO / TOC1 / TOC2
Method: Normal newborn human dermal fibroblasts were cultured from foreskin specimens into DMEM supplemented with 10% CS as described above. Due to the large number of cells needed for time course experiments, and to minimize donor variability, in dichlorofluorescein diacetate FACS experiments cells from three different donors were combined.
Purified lyophilized oligonucleotides were obtained and prepared for cell treatment as described above. All treatments involved a single stimulation with T-oligo, after which cells were harvested at various times without medium changes or addition of more T-oligo. Treatment doses were 100 μM pTT and 40 μM TO except in dose-response experiments; these concentrations were determined in previous experiments to be optimal for measuring DNA damage responses using these T-oligos.^142,150,228
Complementary and scrambled oligonucleotides were chosen for each T-oligo. pAA and pCC were used as controls for pTT, and the complementary 11-base pCTAACCCTAAC (TOC1, SEQ ID NO: 22) and a scrambled sequence pGATCGATCGAT (TOC2, SEQ ID NO: 23) were used as controls for the T-oligo TO.
as §1
Hydrogen peroxide positive controls were used to rule out saturation of the DCF probe in the T-oligo dose response experiments. Fibroblasts were exposed to 1 mM, 5 mM and 10 mM H2O2 solutions in PBS for 15 minutes following DCF incubation for 30 minutes, harvested and analyzed as described above.
The horseradish peroxidase assay data was analyzed by one-way ANOVA. DCF assay FACScan results were analyzed using Cellquest software (Becton-Dickinson, Calif.). All peak positions on x-axis of the fluorescence histogram plot were determined visually (using the software) and recorded as a number. Peak position values were then compared using one-way ANOVA.

Compound | DCF fluorescence (intracellular ROS) compared to diluent [2] | also measured
[Cl-].c1ccc([I+]c2ccccc2)cc1 [DPI, diphenyliodonium chloride] | – | effect of DPI on T-oligo-stimulated ROS (DCF fluorescence) [1]: consistently abrogated the increase in ROS stimulated by T-oligos
OO [H2O2, Hydrogen peroxide, reference compound] | – | DCF peak shift of positive control ([2]; 1 mM H2O2 for 15 minutes): greater shift than any of the T-oligo treatments
pCTAACCCTAAC (5' {P}, sugars by position and backbone not given here) [TOC1, complementary 11-base control oligonucleotide for TO, reference compound] | not significantly different from each other | –
pGATCGATCGAT (5' {P}, sugars by position and backbone not given here) [TOC2, reference compound] | not significantly different from each other; also recorded: overlapping with diluent curve | –
